Source: PubChem BioAssay (NCI)
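Briefly, cells in 96-well plates were exposed to five compound concentrations for 48 h, and endpoints were estimated by linear interpolation. TGI is the concentration that stops growth completely.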 The source made the active and inactive calls. No stated cut-off is given here; in the data, active means GI50 below about 0.43 µM; inactive means the rest.

How the values were obtained:
Test in all cases: NCI tumour cell line growth inhibition, 48 h
SF-268 CNS = system: SF-268 CNS
HL-60(TB) leukemia = system: HL-60(TB) leukemia
OVCAR-8 ovarian = system: OVCAR-8 ovarian
TK-10 renal = system: TK-10 renal
OVCAR-5 ovarian = system: OVCAR-5 ovarian
DU-145 prostate = system: DU-145 prostate
HCT-116 colon = system: HCT-116 colon
T-47D breast = system: T-47D breast
BT-549 breast = system: BT-549 breast
SF-539 CNS = system: SF-539 CNS
HT29 colon = system: HT29 colon
SN12C renal = system: SN12C renal
COLO 205 colon = system: COLO 205 colon
UACC-62 melanoma = system: UACC-62 melanoma
HOP-92 NSCLC = system: HOP-92 NSCLC
NCI-H460 lung = system: NCI-H460 lung
M14 melanoma = system: M14 melanoma
MOLT-4 leukemia = system: MOLT-4 leukemia
SK-MEL-2 melanoma = system: SK-MEL-2 melanoma
NCI-H522 lung = system: NCI-H522 lung
SK-OV-3 ovarian = system: SK-OV-3 ovarian
SF-295 CNS = system: SF-295 CNS
SR leukemia = system: SR leukemia
EKVX NSCLC = system: EKVX NSCLC
NCI-H226 lung = system: NCI-H226 lung
A549 NSCLC = system: A549 NSCLC
HCT-15 colon = system: HCT-15 colon
IGROV1 ovarian = system: IGROV1 ovarian
SNB-19 CNS = system: SNB-19 CNS
KM12 colon = system: KM12 colon
K-562 leukemia = system: K-562 leukemia
UO-31 renal = system: UO-31 renal
NCI/ADR-RES ovarian = system: NCI/ADR-RES ovarian
SW-620 colon = system: SW-620 colon
SK-MEL-5 melanoma = system: SK-MEL-5 melanoma
SK-MEL-28 melanoma = system: SK-MEL-28 melanoma
UACC-257 melanoma = system: UACC-257 melanoma
PC-3 prostate = system: PC-3 prostate
HCC-2998 colon = system: HCC-2998 colon
U251 CNS = system: U251 CNS
HS 578T breast = system: HS 578T breast
LOX IMVI melanoma = system: LOX IMVI melanoma
MCF7 breast = system: MCF7 breast
RPMI-8226 leukemia = system: RPMI-8226 leukemia
MALME-3M melanoma = system: MALME-3M melanoma
SNB-75 CNS = system: SNB-75 CNS
CCRF-CEM leukemia = system: CCRF-CEM leukemia
HOP-62 NSCLC = system: HOP-62 NSCLC
A498 renal = system: A498 renal
NCI-H23 lung = system: NCI-H23 lung
OVCAR-4 ovarian = system: OVCAR-4 ovarian
ACHN renal = system: ACHN renal
MDA-MB-435 = system: MDA-MB-435
CAKI-1 renal = system: CAKI-1 renal
MDA-N = system: MDA-N
RXF 393 renal = system: RXF 393 renal
786-0 renal = system: 786-0 renal
MDA-MB-231 breast = system: MDA-MB-231 breast
OVCAR-3 ovarian = system: OVCAR-3 ovarian

## CCCC(=O)OCC(COC(=O)CCC)OC(=O)CCC
SF-268 CNS
  TGI: > 100 µM
  outcome: inactive
HL-60(TB) leukemia
  TGI: 90.7 µM
  outcome: inactive
OVCAR-8 ovarian
  TGI: > 100 µM
  outcome: inactive
TK-10 renal
  TGI: > 100 µM
  outcome: inactive
OVCAR-5 ovarian
  TGI: > 100 µM
DU-145 prostate
  TGI: > 100 µM
  outcome: inactive
HCT-116 colon
  TGI: > 100 µM
  outcome: inactive
T-47D breast
  TGI: > 100 µM
BT-549 breast
  TGI: > 100 µM
SF-539 CNS
  TGI: > 100 µM
  outcome: inactive
HT29 colon
  TGI: > 100 µM
  outcome: inactive
SN12C renal
  TGI: > 100 µM
  outcome: inactive
COLO 205 colon
  TGI: > 100 µM
  outcome: inactive
UACC-62 melanoma
  TGI: > 100 µM
HOP-92 NSCLC
  TGI: > 100 µM
NCI-H460 lung
  TGI: > 100 µM
  outcome: inactive
M14 melanoma
  TGI: > 100 µM
  outcome: inactive
MOLT-4 leukemia
  TGI: > 100 µM
  outcome: inactive
SK-MEL-2 melanoma
  TGI: > 100 µM
  outcome: inactive
NCI-H522 lung
  TGI: > 100 µM
SK-OV-3 ovarian
  TGI: > 100 µM
  outcome: inactive
SF-295 CNS
  TGI: > 100 µM
  outcome: inactive
SR leukemia
  outcome: inactive
EKVX NSCLC
  TGI: > 100 µM
  outcome: inactive
NCI-H226 lung
  TGI: > 100 µM
  outcome: inactive
A549 NSCLC
  TGI: > 100 µM
  outcome: inactive
HCT-15 colon
  TGI: > 100 µM
  outcome: inactive
IGROV1 ovarian
  TGI: > 100 µM
SNB-19 CNS
  TGI: > 100 µM
  outcome: inactive
KM12 colon
  TGI: > 100 µM
  outcome: inactive
K-562 leukemia
  TGI: > 100 µM
  outcome: inactive
UO-31 renal
  TGI: > 100 µM
  outcome: inactive
NCI/ADR-RES ovarian
  TGI: 88.6 µM
  outcome: inactive
SW-620 colon
  TGI: > 100 µM
  outcome: inactive
SK-MEL-5 melanoma
  TGI: > 100 µM
  outcome: inactive
SK-MEL-28 melanoma
  TGI: > 100 µM
  outcome: inactive
UACC-257 melanoma
  TGI: > 100 µM
  outcome: inactive
PC-3 prostate
  TGI: > 100 µM
  outcome: inactive
HCC-2998 colon
  TGI: > 100 µM
  outcome: inactive
U251 CNS
  TGI: > 100 µM
  outcome: inactive
HS 578T breast
  TGI: > 100 µM
  outcome: inactive
LOX IMVI melanoma
  TGI: > 100 µM
  outcome: inactive
MCF7 breast
  TGI: > 100 µM
  outcome: inactive
RPMI-8226 leukemia
  TGI: > 100 µM
  outcome: inactive
MALME-3M melanoma
  TGI: > 100 µM
  outcome: inactive
SNB-75 CNS
  TGI: > 100 µM
  outcome: inactive
CCRF-CEM leukemia
  TGI: > 100 µM
  outcome: inactive
HOP-62 NSCLC
  TGI: > 100 µM
  outcome: inactive
A498 renal
  TGI: > 100 µM
  outcome: inactive
NCI-H23 lung
  TGI: > 100 µM
  outcome: inactive
OVCAR-4 ovarian
  TGI: > 100 µM
  outcome: inactive
ACHN renal
  TGI: > 100 µM
  outcome: inactive
MDA-MB-435
  TGI: > 100 µM
  outcome: inactive
CAKI-1 renal
  TGI: > 100 µM
  outcome: inactive
MDA-N
  TGI: > 100 µM
  outcome: inactive
RXF 393 renal
  TGI: > 100 µM
786-0 renal
  TGI: > 100 µM
  outcome: inactive
MDA-MB-231 breast
  TGI: > 100 µM
  outcome: inactive
OVCAR-3 ovarian
  TGI: > 100 µM

## CSc1ccc(NC(=O)C2CCCCC2C(=O)O)cc1 (configuration not stated)
SF-268 CNS
  TGI: > 100 µM
HL-60(TB) leukemia
  TGI: > 100 µM
OVCAR-8 ovarian
  TGI: > 100 µM
TK-10 renal
  TGI: > 100 µM
OVCAR-5 ovarian
  TGI: > 100 µM
DU-145 prostate
  TGI: > 100 µM
HCT-116 colon
  TGI: > 100 µM
T-47D breast
  TGI: > 100 µM
BT-549 breast
  TGI: > 100 µM
SF-539 CNS
  TGI: > 100 µM
HT29 colon
  TGI: > 100 µM
SN12C renal
  TGI: > 100 µM
COLO 205 colon
  TGI: > 100 µM
UACC-62 melanoma
  TGI: > 100 µM
HOP-92 NSCLC
  TGI: > 100 µM
NCI-H460 lung
  TGI: > 100 µM
M14 melanoma
  TGI: > 100 µM
MOLT-4 leukemia
  TGI: > 100 µM
SK-MEL-2 melanoma
  TGI: > 100 µM
NCI-H522 lung
  TGI: > 100 µM
SK-OV-3 ovarian
  TGI: > 100 µM
SF-295 CNS
  TGI: > 100 µM
SR leukemia
  TGI: > 100 µM
EKVX NSCLC
  TGI: > 100 µM
NCI-H226 lung
  TGI: > 100 µM
A549 NSCLC
  TGI: > 100 µM
HCT-15 colon
  TGI: > 100 µM
IGROV1 ovarian
  TGI: > 100 µM
SNB-19 CNS
  TGI: > 100 µM
KM12 colon
  TGI: > 100 µM
K-562 leukemia
  TGI: > 100 µM
UO-31 renal
  TGI: > 100 µM
NCI/ADR-RES ovarian
  TGI: > 100 µM
SW-620 colon
  TGI: > 100 µM
SK-MEL-5 melanoma
  TGI: > 100 µM
SK-MEL-28 melanoma
  TGI: > 100 µM
UACC-257 melanoma
  TGI: > 100 µM
PC-3 prostate
  TGI: > 100 µM
HCC-2998 colon
  TGI: > 100 µM
U251 CNS
  TGI: > 100 µM
HS 578T breast
  TGI: > 100 µM
LOX IMVI melanoma
  TGI: > 100 µM
MCF7 breast
  TGI: > 100 µM
RPMI-8226 leukemia
  TGI: > 100 µM
MALME-3M melanoma
  TGI: > 100 µM
SNB-75 CNS
  TGI: > 100 µM
CCRF-CEM leukemia
  TGI: > 100 µM
HOP-62 NSCLC
  TGI: > 100 µM
A498 renal
  TGI: > 100 µM
NCI-H23 lung
  TGI: > 100 µM
OVCAR-4 ovarian
  TGI: > 100 µM
ACHN renal
  TGI: > 100 µM
MDA-MB-435
  TGI: > 100 µM
CAKI-1 renal
  TGI: > 100 µM
MDA-N
  TGI: > 100 µM
RXF 393 renal
  TGI: > 100 µM
786-0 renal
  TGI: > 100 µM
MDA-MB-231 breast
  TGI: > 100 µM
OVCAR-3 ovarian
  TGI: > 100 µM
